From patent publication US20220259193A1, “KCNT1 INHIBITORS AND METHODS OF USE” (Praxis Precision Medicines, Inc., priority 2019, published 2022) come the findings set out here.

The structures appear in SMILES notation. A value given as a limit tells only on which side of the number the result lay.

For the assay, the target named is T1, KCNT1 (KNa1.1, Slack) (Homo sapiens, UniProt Q5JUK3).
T1 construct: expressed in transfected cells; host or cells: HEK-TREX (tetracycline-inducible HEK cell line)
T1 sequence (Q5JUK3 1-1230): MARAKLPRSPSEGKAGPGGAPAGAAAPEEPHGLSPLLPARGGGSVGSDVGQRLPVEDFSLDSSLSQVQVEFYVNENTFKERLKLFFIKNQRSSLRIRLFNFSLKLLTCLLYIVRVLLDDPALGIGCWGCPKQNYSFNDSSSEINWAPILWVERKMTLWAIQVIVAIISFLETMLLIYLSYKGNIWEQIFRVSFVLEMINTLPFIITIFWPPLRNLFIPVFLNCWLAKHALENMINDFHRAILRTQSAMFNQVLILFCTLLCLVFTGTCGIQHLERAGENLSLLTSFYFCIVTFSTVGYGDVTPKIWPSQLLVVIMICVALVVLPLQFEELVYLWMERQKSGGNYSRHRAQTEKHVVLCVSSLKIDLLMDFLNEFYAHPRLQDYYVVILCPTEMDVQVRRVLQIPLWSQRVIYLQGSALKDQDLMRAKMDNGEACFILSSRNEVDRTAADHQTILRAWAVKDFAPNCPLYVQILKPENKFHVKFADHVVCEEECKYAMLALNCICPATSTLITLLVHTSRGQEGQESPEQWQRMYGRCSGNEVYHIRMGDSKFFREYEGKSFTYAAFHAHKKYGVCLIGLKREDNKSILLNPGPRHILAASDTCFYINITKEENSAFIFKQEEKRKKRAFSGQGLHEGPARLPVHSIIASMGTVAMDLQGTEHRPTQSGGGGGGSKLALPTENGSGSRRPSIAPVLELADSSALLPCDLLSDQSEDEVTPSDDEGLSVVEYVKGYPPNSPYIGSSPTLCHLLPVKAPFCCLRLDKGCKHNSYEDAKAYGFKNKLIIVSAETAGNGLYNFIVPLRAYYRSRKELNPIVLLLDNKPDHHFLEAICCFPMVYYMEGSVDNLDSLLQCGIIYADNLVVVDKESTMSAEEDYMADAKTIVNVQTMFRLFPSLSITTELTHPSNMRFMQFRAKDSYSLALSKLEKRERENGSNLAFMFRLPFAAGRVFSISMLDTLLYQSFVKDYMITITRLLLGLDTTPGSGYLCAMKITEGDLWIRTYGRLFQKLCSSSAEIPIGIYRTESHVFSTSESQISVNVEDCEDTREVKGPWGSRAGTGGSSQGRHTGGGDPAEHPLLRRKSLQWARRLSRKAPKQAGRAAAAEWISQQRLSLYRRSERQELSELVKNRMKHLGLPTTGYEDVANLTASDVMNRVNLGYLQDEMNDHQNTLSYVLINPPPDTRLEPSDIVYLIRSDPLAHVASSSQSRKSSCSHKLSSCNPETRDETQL
Nature of the assay: KCNT1 patch clamp assay (SyncroPatch 384PE automated patch clamp). Format: cell-based. To be noted: tetracycline inducible HEK-TREX cell line; perforated patch; step from −80 mV to 0 mV; room temperature; read-out: KCNT1-WT IC50. The procedure, abridged:
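Tetracycline-inducible HEK-TREX cells; perforated-patch (10 μM escin) population recordings at room temperature, holding −80 mV with 100 ms step to 0 mV.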
The term IC50 denotes the concentration at which inhibition is half-maximal. Take `CC[C@H](NC(=O)c1ccnn1C1CCCC1)c1nc(-c2ccnc(C)c2)no1` [Compound 216, (S)-1-cyclopentyl-N-(1-(3-(2-methylpyridin-4-yl)-1,2,4-oxadiazol-5-yl)propyl)-1H-pyrazole-5-carboxamide]: the half-inhibitory concentration (IC50) is ≤ 1 µM. In the case of `C[C@H](NC(=O)c1cc(C(F)(F)F)nn1C)c1nc(-c2cccc(C#N)c2)no1` [Compound 104], the IC50 was 1 to 20 µM. In the case of `C[C@H](NC(=O)OC(C)(C)C)c1nc(-c2ccnc(C3CC3)c2)no1` [Compound 288, tert-butyl (S)-(1-(3-(2-cyclopropylpyridin-4-yl)-1,2,4-oxadiazol-5-yl)ethyl)carbamate], the IC50 is ≤ 1 µM. For `Cc1nn(C(C)C)cc1C(=O)N[C@@H](C)c1nc(-c2cccc(F)c2)no1` [Compound 95], the 50% inhibitory concentration (IC50) was 1 to 20 µM. For the compound `CC(C)c1cc(-c2noc([C@H](C)NC(=O)c3cc(C(F)(F)F)nn3C)n2)ccn1` [Compound 269, (S)—N-(1-(3-(2-isopropylpyridin-4-yl)-1,2,4-oxadiazol-5-yl)ethyl)-1-methyl-3-(trifluoromethyl)-1H-pyrazole-5-carboxamide], the IC50 was ≤ 1 µM. As for `C[C@@H](NC(=O)c1cc(C2CC2)nn1C)c1nc(-c2cccc(F)c2)no1` (single isomer, unassigned) [Compound 93], the figure is 1 to 20 µM; as for `Cn1nc(C(F)(F)F)cc1C(=O)N[C@@H](CCS(C)(=O)=O)c1nc(-c2cccc(F)c2)no1` (single isomer, unassigned) [Compound 144], 1 to 20 µM; as for `C[C@@H](NC(=O)c1cc(C(F)(F)F)nn1C)c1nc(-c2ccc(F)c(F)c2)no1` (single isomer, unassigned) [Compound 76], ≤ 1 µM. With `C[C@H](NC(=O)c1cc(C(F)(F)F)nn1C)c1nc(-c2ccnc(COC3CC3)c2)no1` [Compound 254, (S)—N-(1-(3-(2-(cyclopropoxymethyl)pyridin-4-yl)-1,2,4-oxadiazol-5-yl)ethyl)-1-methyl-3-(trifluoromethyl)-1H-pyrazole-5-carboxamide], the IC50 lay within 1 to 20 µM. Regarding `CO[C@@H](C)[C@@H](NC(=O)c1cc(C(F)(F)F)nn1C)c1nc(-c2cccc(F)c2)no1` [Compound 138], the half-maximal inhibitory concentration (IC50) was ≤ 1 µM. As to `C[C@H](NC(=O)c1cn(CC(F)(F)F)nc1C1CC1)c1nc(-c2cccc(F)c2)no1` [Compound 151], the half-maximal inhibitory concentration (IC50) fell in the range of 1 to 20 µM. On to `COC(=O)CC(NC(=O)c1cc(C(F)(F)F)nn1C)c1nc(-c2cccc(F)c2)no1` (single isomer, unassigned) [Compound 125, methyl 3-[3-(3-fluorophenyl)-1,2,4-oxadiazol-5-yl]-3-[[2-methyl-5-(trifluoromethyl)pyrazole-3-carbonyl]amino]propanoate], for which the half-maximal inhibitory concentration (IC50) was ≤ 1 µM. `CC[C@H](NC(=O)c1cc(C)nn1C1CCOCC1)c1nc(-c2ccnc(C)c2)no1` [Compound 217, (S)-3-methyl-N-(1-(3-(2-methylpyridin-4-yl)-1,2,4-oxadiazol-5-yl)propyl)-1-(tetrahydro-2H-pyran-4-yl)-1H-pyrazole-5-carboxamide]: the concentration for half-maximal inhibition (IC50) fell in the range of 1 to 20 µM.

For `CC[C@H](NC(=O)c1cc(C)nn1-c1ccccc1)c1nc(-c2ccnc(C)c2)no1` [Compound 218, (S)-3-methyl-N-(1-(3-(2-methylpyridin-4-yl)-1,2,4-oxadiazol-5-yl)propyl)-1-phenyl-1H-pyrazole-5-carboxamide], the half-maximal inhibitory concentration (IC50) was ≤ 1 µM. `C[C@H](NC(=O)c1cc(C(F)(F)F)nn1Cc1ccccc1)c1nc(-c2ccnc(C(F)(F)F)c2)no1` [Compound 241, (S)-1-benzyl-3-(trifluoromethyl)-N-(1-(3-(2-(trifluoromethyl)pyridin-4-yl)-1,2,4-oxadiazol-5-yl)ethyl)-1H-pyrazole-5-carboxamide]: the IC50 is ≤ 1 µM. Take `CC[C@H](NC(=O)c1cc(C(F)(F)F)nn1C)c1nc(-c2ccnc(C3CC3)c2)no1` [Compound 248, (S)—N-(1-(3-(2-cyclopropylpyridin-4-yl)-1,2,4-oxadiazol-5-yl)propyl)-1-methyl-3-(trifluoromethyl)-1H-pyrazole-5-carboxamide]: the IC50 was ≤ 1 µM. As for `CC[C@H](NC(=O)c1cc(C(F)(F)F)nn1CC(F)F)c1nc(-c2cccc(F)c2)no1` [Compound 111], the half-inhibitory concentration (IC50) was ≤ 1 µM. For `CC(NC(=O)c1cc(C(F)(F)F)nn1C)c1nc(-c2cccc(C(=O)N(C)C)c2)no1` (centres unmarked) [Compound 183, N-(1-(3-(3-(dimethylcarbamoyl)phenyl)-1,2,4-oxadiazol-5-yl)ethyl)-1-methyl-3-(trifluoromethyl)-1H-pyrazole-5-carboxamide], the IC50 was ≥ 20 µM.

Turning to `CC(C)[C@H](NC(=O)c1cc(C2CC2)nn1C)c1nc(-c2cccc(F)c2)no1` [Compound 63], the concentration for half-maximal inhibition (IC50) was ≤ 1 µM. Take `COC[C@@H](NC(=O)c1cc(C(F)(F)F)nn1C)c1nc(-c2cccc(C)c2)no1` (single isomer, unassigned) [Compound 80]: the IC50 was ≤ 1 µM. As for `Cn1nc(C(F)(F)F)cc1C(=O)NC1(c2nc(-c3cccc(F)c3)no2)CCOCC1` [Compound 118], the figure is 1 to 20 µM; as for `Cn1nc(C(F)(F)F)cc1C(=O)NC(CC(N)=O)c1nc(-c2cccc(F)c2)no1` (single isomer, unassigned) [Compound 128, N-[3-amino-1-[3-(3-fluorophenyl)-1,2,4-oxadiazol-5-yl]-3-oxo-propyl]-2-methyl-5-(trifluoromethyl)pyrazole-3-carboxamide], ≥ 20 µM. As for `CC[C@H](NC(=O)c1cc(C(F)(F)F)nn1C)c1nc(-c2cccc(F)c2)no1` [Compound 105], the IC50 is ≤ 1 µM. For `Cn1nc(C(F)(F)F)cc1C(=O)NC(CC(=O)N1CC(O)C1)c1nc(-c2cccc(F)c2)no1` (centres unmarked) [Compound 124], the half-maximal inhibitory concentration (IC50) was ≥ 20 µM. As for `C[C@H](NC(=O)c1cc(C(F)(F)F)nn1CC(=O)N(C)C)c1nc(-c2ccnc(C(F)(F)F)c2)no1` [Compound 251, (S)-1-(2-(dimethylamino)-2-oxoethyl)-3-(trifluoromethyl)-N-(1-(3-(2-(trifluoromethyl)pyridin-4-yl)-1,2,4-oxadiazol-5-yl)ethyl)-1H-pyrazole-5-carboxamide], the IC50 lay within 1 to 20 µM. On to `CC(NC(=O)c1cc(C(F)(F)F)nn1C)c1nc(-c2cccc(C(N)=O)c2)no1` (centres unmarked) [Compound 193, N-(1-(3-(3-carbamoylphenyl)-1,2,4-oxadiazol-5-yl)ethyl)-1-methyl-3-(trifluoromethyl)-1H-pyrazole-5-carboxamide], for which the 50% inhibitory concentration (IC50) is ≥ 20 µM. Turning to `Cc1nn(C(C)C)cc1C(=O)NC(C)c1nc(-c2cccc(OC(F)F)c2)no1` (centres unmarked) [Compound 101], the concentration for half-maximal inhibition (IC50) is 1 to 20 µM. Regarding `C[C@H](NC(=O)c1cc(C(F)(F)F)nn1C)c1nc(-c2ccnc(CN(C)C)c2)no1` [Compound 260, (S)—N-(1-(3-(2-((dimethylamino)methyl)pyridin-4-yl)-1,2,4-oxadiazol-5-yl)ethyl)-1-methyl-3-(trifluoromethyl)-1H-pyrazole-5-carboxamide], the IC50 was ≥ 20 µM. As for `CC(C)Oc1cc(-c2noc([C@H](C)NC(=O)c3cc(C(F)(F)F)nn3CC(=O)N(C)C)n2)ccn1` [Compound 224, (S)-1-(2-(dimethylamino)-2-oxoethyl)-N-(1-(3-(2-isopropoxypyridin-4-yl)-1,2,4-oxadiazol-5-yl)ethyl)-3-(trifluoromethyl)-1H-pyrazole-5-carboxamide], the figure is ≤ 1 µM; as for `CC[C@H](NC(=O)c1cc(C2CC2)nn1C)c1nc(-c2cccc(F)c2)no1` [Compound 60], ≤ 1 µM. Take `C[C@H](NC(=O)OC(C)(C)C)c1nc(-c2ccnc(C(F)(F)F)c2)no1` [Compound 295, tert-butyl (S)-(1-(3-(2-(trifluoromethyl)pyridin-4-yl)-1,2,4-oxadiazol-5-yl)ethyl)carbamate]: the IC50 was ≤ 1 µM. For `CC[C@H](NC(=O)c1cc(C)n(-c2cccnc2)n1)c1nc(-c2ccnc(C)c2)no1` [Compound 299, (S)-5-methyl-N-(1-(3-(2-methylpyridin-4-yl)-1,2,4-oxadiazol-5-yl)propyl)-1-(pyridin-3-yl)-1H-pyrazole-3-carboxamide], the IC50 is ≥ 20 µM.
